Source: patent US20240294553A1, “SIZE-SELECTIVE ACYCLIC CHELATORS AND THEIR USE FOR THE RECOVERY OF RARE EARTH ELEMENTS” (UT-Battelle, LLC, priority 2023, published 2024)

Columns and labels:
[1] = Leaching of rare-earth elements from mixed rare-earth hydroxide; details: RT, 26 h, 20 mM lixiviant; for selectivity of leaching of REEs (percent dissolution): pH 8.2, CHES/CAPS buffer, 15 mg/mL (La,Nd,Eu,Dy,Y)OH3, FIG. 11
Protocol: A solution of CHES (400 mM) and CAPS (400 mM) was prepared in H2O. The pH was left unadjusted. Buffered solutions of acyclopa at pH 8.2, 9, and 10 were prepared by adding an aliquot of acyclopa (6.65 mL of a 75.17 mM aqueous stock solution) to a volumetric flask (25 mL) containing CHES/CAPS (12.5 mL). The solution was diluted with concentrated NaOH and H2O to the desired final pH. The final ligand concentration was 20 mM and the final CHES and CAPS concentrations were 200 mM each. Buffered solutions of EDTA were prepared in an analogous manner. For control samples without chelator, CHES/CAPS buffer (200 mM each) was prepared separately for each pH.
Leaching experiments were setup as follows: Various quantities (5±0.3 mg, 10±0.5 mg, and 15±0.5 mg) of (La,Nd,Eu,Dy,Y)OH3 were massed into 2 mL flat-bottomed screw-cap polypropylene tubes. An aliquot of lixiviant solution or buffer only (1 mL) was added to each tube. The samples were rotated end-over-end at 35 RPM and ambient temperature (71±1° F.). At pre-determined time points, the suspensions were centrifuged, and an aliquot of the supernatant (10 μL) was carefully removed and placed into 2% HNO3 (4.990 mL) for ICP-MS analysis. The samples were shaken to break up the pellets and returned to the rotating wheels. At the final time point, the suspensions were filtered via a 96-well filter plate (Pall AcroPrep Advance 0.2 μm Supor Short Tip) and sampled for ICP-MS. The final pH of representative samples was recorded. […] Also, the separation factor was calculated according to the equation below. The leaching of REEs (expressed as percent dissolution) from (La,Nd,Eu,Dy,Y)OH3 by acyclopa as a function of pH (pH 8.2, pH 9, or pH 10) using a CHES/CAPS buffer, RT, 26 h, 20 mM lixiviant, and 5 mg/mL (La,Nd,Eu,Dy,Y)OH3 are shown in FIG. 9. The leaching of REEs (expressed as concentration) from (La,Nd,Eu,Dy,Y)OH3 by acyclopa as a function of solid loading at a pH of 9 using a CHES/CAPS buffer, RT, 26 h, 20 mM lixiviant, and 5-15 mg/mL (La,Nd,Eu,Dy,Y)OH3 are shown in FIG. 10. […]

[2] = Protonation constants and lanthanide complex stabilities by potentiometric titration; format: binding
Protocol: Protonation constants and lanthanide (Ln) stability constants of acyclopa and acyclopa-XL were obtained by potentiometric titration using either a Metrohm Titrando 888 titrator or an 855 Robotic Titrosampler connected to an 805 Dosimat. Both titration systems were equipped with Ross Orion combination electrodes (8103BN, ThermoFisher Scientific), Metrohm 806 exchange units with automatic burets (10 mL), and Tiamo 2.5 software. The titration vessel was fitted with a removable glass cell and thermostated at 25° C. using an Isotemp 500LC recirculating chiller (Fisher Scientific). CO2 was excluded from the titration vessel using a small positive pressure of argon bubbled through 30 wt % KOH. […]
Before every ligand or ligand-metal titration, the electrode was calibrated in terms of the hydrogen-ion concentration by titrating a solution of standardized HCl (0.005 M) containing supporting electrolyte (KCl=0.095 M) with standardized KOH. Data within the pH ranges of 2.3-3.2 and 10.8-11.3 were analyzed using the program Glee (version 3.0.21) to obtain the standard electrode potential (E0) and slope factor. […] Their exact concentrations were determined potentiometrically from the two sharp endpoints of their titration curves using the formula ((VEP2−VEP1)/npKa)*[KOH]. […]

[3] = Recovery and reuse of acyclopa in multiple leach cycles (oxalic acid stripping)
Protocol: The release of REEs from acyclopa and their subsequent precipitation as REE2(C2O4)3 was investigated as a function of pH and oxalic acid equivalents. Pregnant leach solutions were prepared at pH 8.2 using acyclopa and La(OH)3, and varying equivalents of H2C2O4 were added. The pH of the samples was reduced stepwise to pH 6, 5, 4, and 3 using HCl. The concentration of La remaining in the supernatant at each pH was analyzed by ICP-MS. The release of REEs from acyclopa and their subsequent precipitation as REE2(C2O4)3 as a function of pH and oxalic acid equivalents is shown in FIG. 12.
Next, the ability to reuse acyclopa in multiple leach cycles was investigated. Leaching samples were prepared as described above at pH 8.2 using acyclopa and La(OH)3. […] To this solution, 2 equivalents of oxalic acid were added, and the pH was adjusted to 3 using HCl. The resulting precipitate was removed. The pH of the filtrate was re-adjusted to 8.2 using NaOH, and another portion of La(OH)3 was added. The suspension was stirred for 24 h, and the percent La dissolved was measured by ICP-MS. In subsequent precipitation cycles, only 1 equivalent of oxalic acid was added. Using this method, ˜75% dissolution was maintained over 4 dissolution/precipitation cycles. The results are shown graphically in FIG. 13.

SMILES	selectivity of leaching of REEs (percent dissolution) [1]	Δ log KLa-Lu (difference of stability constants log KML) ([2]; 25° C., ionic strength 0.1 M KCl, La^3+ versus Lu^3+)	affinity for rare-earth elements (in words) ([2]; log KML versus ionic radius, FIG. 6)	percent La dissolved (dissolution of La(OH)3) ([3]; pH 8.2, 24 h, maintained over 4 dissolution/precipitation cycles, ICP-MS, FIG. 13) [%]	initial dissolution of La(OH)3 ([3]; pH 8.2, first leach)	effect of increasing solid loading on La/Y separation ([1]; pH 9, CHES/CAPS buffer, 5-15 mg/mL (La,Nd,Eu,Dy,Y)OH3, FIG. 10)
O=C(O)CN(CCN(CC(=O)O)CC(=O)O)CC(=O)O [EDTA, ethylenediaminetetraacetic acid, reference compound]	fails to demonstrate any selectivity	–	–	–	–	–
O=C(O)c1cccc(CN(CCO)CCOCCOCCN(CCO)Cc2cccc(C(=O)O)n2)n1 [acyclopa, 6,6′-(2,11-bis(2-hydroxyethyl)-5,8-dioxa-2,11-diazadodecane-1,12-diyl)dipicolinic acid]	preferentially leaches large over small REEs	4.27	high affinity for large, light REEs and low affinity for small, heavy REEs	~75	nearly all of the La(OH)3 was dissolved initially	significantly increases separative leaching of La from Y
